Results as given in patent US20070049564A1 (Wyeth, priority 2005, published 2007).
≈ marks a conversion by molar mass, not a printed value. Like-named read-outs stand apart in the source and are kept apart here.

Legend:
Experiment in all cases: MIC, broth microdilution
S. agalactiae GC 4564 = conditions: Streptococcus agalactiae
E. coli GC 6465 = conditions: Escherichia coli
S. aureus GC 1079 = conditions: Staphylococcus aureus
S. pneumoniae* GC 4465 = conditions: Streptococcus pneumoniae
S. pneumoniae+ GC 4465 = conditions: Streptococcus pneumoniae
E. coli GC 2235 = conditions: Escherichia coli
S. typhimurium GC 2172 = conditions: Salmonella enterica, TYPHIMURIUM
E. coli GC 2272 = conditions: Escherichia coli
c. albicans GC 3066 = tested on: c. albicans GC 3066
E. faecalis GC 2267 = conditions: Enterococcus faecalis
S. aureus GC 1131 = conditions: Staphylococcus aureus
E. coli GC 4560 = conditions: Escherichia coli
S. aureus GC 6467 = conditions: Staphylococcus aureus
E. faecalis GC 2242 = conditions: Enterococcus faecalis
E. coli GC 4559 = conditions: Escherichia coli
E. faecalis GC 4555 = conditions: Enterococcus faecalis
S. aureus GC 4536 = conditions: Staphylococcus aureus
S. epidermidis GC 4935 = conditions: Staphylococcus epidermidis
E. coli GC 1073 = conditions: Escherichia coli
[1] = read-out: MINIMAL INHIBITORY CONCENTRATION MIC, Human Serum
[2] = read-out: MINIMAL INHIBITORY CONCENTRATION MIC, Mouse Serum
[3] = read-out: MINIMAL INHIBITORY CONCENTRATION MIC, Water

MIC (S. agalactiae GC 4564; GC4564, read-out: MINIMAL INHIBITORY CONCENTRATION MIC, Human Serum): 16 µg/mL (≈ 23.3 µM) | MIC (S. agalactiae GC 4564; GC4564, read-out: MINIMAL INHIBITORY CONCENTRATION MIC, Mouse Serum): 8 µg/mL (≈ 11.7 µM) | MIC (S. agalactiae GC 4564; GC4564, read-out: MINIMAL INHIBITORY CONCENTRATION MIC, Water): 8 µg/mL (≈ 11.7 µM) | MIC (E. coli GC 6465; GC6465, read-out: MINIMAL INHIBITORY CONCENTRATION MIC, Human Serum): > 64 µg/mL | MIC (E. coli GC 6465; GC6465, read-out: MINIMAL INHIBITORY CONCENTRATION MIC, Mouse Serum): > 64 µg/mL | MIC (E. coli GC 6465; GC6465, read-out: MINIMAL INHIBITORY CONCENTRATION MIC, Water): > 64 µg/mL | MIC (S. aureus GC 1079; GC1079, read-out: MINIMAL INHIBITORY CONCENTRATION MIC, Human Serum): 4 µg/mL (≈ 5.83 µM) | MIC (S. aureus GC 1079; GC1079, read-out: MINIMAL INHIBITORY CONCENTRATION MIC, Mouse Serum): 2 µg/mL (≈ 2.92 µM) | MIC (S. aureus GC 1079; GC1079, read-out: MINIMAL INHIBITORY CONCENTRATION MIC, Water): 8 µg/mL (≈ 11.7 µM) | MIC (S. pneumoniae* GC 4465; [1]): 4 µg/mL (≈ 5.83 µM) | MIC (S. pneumoniae* GC 4465; [2]): 2 µg/mL (≈ 2.92 µM) | MIC (S. pneumoniae* GC 4465; [3]): 2 µg/mL (≈ 2.92 µM) | MIC (S. pneumoniae+ GC 4465; [1]): 4 µg/mL (≈ 5.83 µM) | MIC (S. pneumoniae+ GC 4465; [2]): 4 µg/mL (≈ 5.83 µM) | MIC (S. pneumoniae+ GC 4465; [3]): 8 µg/mL (≈ 11.7 µM) | MIC (E. coli GC 2235; GC2235, read-out: MINIMAL INHIBITORY CONCENTRATION MIC, Human Serum): > 64 µg/mL | MIC (E. coli GC 2235; GC2235, read-out: MINIMAL INHIBITORY CONCENTRATION MIC, Mouse Serum): > 64 µg/mL | MIC (E. coli GC 2235; GC2235, read-out: MINIMAL INHIBITORY CONCENTRATION MIC, Water): > 64 µg/mL | MIC (S. typhimurium GC 2172; [1]): > 64 µg/mL | MIC (S. typhimurium GC 2172; [2]): > 64 µg/mL | MIC (S. typhimurium GC 2172; [3]): > 64 µg/mL | MIC (E. coli GC 2272; GC2272, read-out: MINIMAL INHIBITORY CONCENTRATION MIC, Human Serum): > 64 µg/mL | MIC (E. coli GC 2272; GC2272, read-out: MINIMAL INHIBITORY CONCENTRATION MIC, Mouse Serum): > 64 µg/mL | MIC (E. coli GC 2272; GC2272, read-out: MINIMAL INHIBITORY CONCENTRATION MIC, Water): > 64 µg/mL | MIC (c. albicans GC 3066; Candida albicans, GC3066, read-out: MINIMAL INHIBITORY CONCENTRATION MIC): > 64 µg/mL | MINIMAL INHIBITORY CONCENTRATION MIC (c. albicans GC 3066; Human Serum): >64 UG/ML | MINIMAL INHIBITORY CONCENTRATION MIC (c. albicans GC 3066; Mouse Serum): >64 UG/ML | MIC (E. faecalis GC 2267; GC2267, read-out: MINIMAL INHIBITORY CONCENTRATION MIC, Human Serum): 4 µg/mL (≈ 5.83 µM) | MIC (E. faecalis GC 2267; GC2267, read-out: MINIMAL INHIBITORY CONCENTRATION MIC, Mouse Serum): 2 µg/mL (≈ 2.92 µM) | MIC (E. faecalis GC 2267; GC2267, read-out: MINIMAL INHIBITORY CONCENTRATION MIC, Water): 4 µg/mL (≈ 5.83 µM) | MIC (S. aureus GC 1131; GC1131, read-out: MINIMAL INHIBITORY CONCENTRATION MIC, Human Serum): 4 µg/mL (≈ 5.83 µM) | MIC (S. aureus GC 1131; GC1131, read-out: MINIMAL INHIBITORY CONCENTRATION MIC, Mouse Serum): 2 µg/mL (≈ 2.92 µM) | MIC (S. aureus GC 1131; GC1131, read-out: MINIMAL INHIBITORY CONCENTRATION MIC, Water): 4 µg/mL (≈ 5.83 µM) | MIC (E. coli GC 4560; GC4560, read-out: MINIMAL INHIBITORY CONCENTRATION MIC, Human Serum): 4 µg/mL (≈ 5.83 µM) | MIC (E. coli GC 4560; GC4560, read-out: MINIMAL INHIBITORY CONCENTRATION MIC, Mouse Serum): 4 µg/mL (≈ 5.83 µM) | MIC (E. coli GC 4560; GC4560, read-out: MINIMAL INHIBITORY CONCENTRATION MIC, Water): 4 µg/mL (≈ 5.83 µM) | MIC (S. aureus GC 6467; GC6467, read-out: MINIMAL INHIBITORY CONCENTRATION MIC, Human Serum): 4 µg/mL (≈ 5.83 µM) | MIC (S. aureus GC 6467; GC6467, read-out: MINIMAL INHIBITORY CONCENTRATION MIC, Mouse Serum): 2 µg/mL (≈ 2.92 µM) | MIC (S. aureus GC 6467; GC6467, read-out: MINIMAL INHIBITORY CONCENTRATION MIC, Water): 4 µg/mL (≈ 5.83 µM) | MIC (E. faecalis GC 2242; GC2242, read-out: MINIMAL INHIBITORY CONCENTRATION MIC, Human Serum): 4 µg/mL (≈ 5.83 µM) | MIC (E. faecalis GC 2242; GC2242, read-out: MINIMAL INHIBITORY CONCENTRATION MIC, Mouse Serum): 2 µg/mL (≈ 2.92 µM) | MIC (E. faecalis GC 2242; GC2242, read-out: MINIMAL INHIBITORY CONCENTRATION MIC, Water): 4 µg/mL (≈ 5.83 µM) | MIC (E. coli GC 4559; GC4559, read-out: MINIMAL INHIBITORY CONCENTRATION MIC, Human Serum): > 64 µg/mL | MIC (E. coli GC 4559; GC4559, read-out: MINIMAL INHIBITORY CONCENTRATION MIC, Mouse Serum): > 64 µg/mL | MIC (E. coli GC 4559; GC4559, read-out: MINIMAL INHIBITORY CONCENTRATION MIC, Water): > 64 µg/mL | MIC (E. faecalis GC 4555; GC4555, read-out: MINIMAL INHIBITORY CONCENTRATION MIC, Human Serum): 4 µg/mL (≈ 5.83 µM) | MIC (E. faecalis GC 4555; GC4555, read-out: MINIMAL INHIBITORY CONCENTRATION MIC, Mouse Serum): 4 µg/mL (≈ 5.83 µM) | MIC (E. faecalis GC 4555; GC4555, read-out: MINIMAL INHIBITORY CONCENTRATION MIC, Water): 8 µg/mL (≈ 11.7 µM) | MIC (S. aureus GC 4536; GC4536, read-out: MINIMAL INHIBITORY CONCENTRATION MIC, Human Serum): 4 µg/mL (≈ 5.83 µM) | MIC (S. aureus GC 4536; GC4536, read-out: MINIMAL INHIBITORY CONCENTRATION MIC, Mouse Serum): 2 µg/mL (≈ 2.92 µM) | MIC (S. aureus GC 4536; GC4536, read-out: MINIMAL INHIBITORY CONCENTRATION MIC, Water): 4 µg/mL (≈ 5.83 µM) | MIC (S. epidermidis GC 4935; GC4935, read-out: MINIMAL INHIBITORY CONCENTRATION MIC, Human Serum): 4 µg/mL (≈ 5.83 µM) | MIC (S. epidermidis GC 4935; GC4935, read-out: MINIMAL INHIBITORY CONCENTRATION MIC, Mouse Serum): 4 µg/mL (≈ 5.83 µM) | MIC (S. epidermidis GC 4935; GC4935, read-out: MINIMAL INHIBITORY CONCENTRATION MIC, Water): 8 µg/mL (≈ 11.7 µM) | MIC (E. coli GC 1073; GC1073, read-out: MINIMAL INHIBITORY CONCENTRATION MIC, Human Serum): > 64 µg/mL | MIC (E. coli GC 1073; GC1073, read-out: MINIMAL INHIBITORY CONCENTRATION MIC, Mouse Serum): > 64 µg/mL | MIC (E. coli GC 1073; GC1073, read-out: MINIMAL INHIBITORY CONCENTRATION MIC, Water): > 64 µg/mL
Structure (SMILES): CCCCOC(=O)N(CC(=O)Nc1cc(N(C)C)c2c(c1O)C(=O)C1=C(O)[C@]3(O)C(=O)C(C(N)=O)=C(O)[C@@H](N(C)C)[C@@H]3C[C@@H]1C2)C(C)(C)C [Example 58, butyl 2-{[(5aR,6aS,7S,10aS)-9-(aminocarbonyl)-4,7-bis(dimethylamino)-1,8,10a,11-tetrahydroxy-10,12-dioxo-5,5a,6,6a,7,10,10a,12-octahydrotetracen-2-yl]amino}-2-oxoethyl(tert-butyl)carbamate]
